This is an account of results in patent US6894038B2, “Use of biogenic estriol diester prodrugs for the treatment of autoimmune diseases” (Schering Aktiengesellschaft, priority 2002, dated 2005).

The term half-life denotes how long it takes for the measured level to halve.

In one data set the test system is Lewis rat EAE model. Kind of data set: Lewis rat acute EAE model, clinical score. The data set is classed as in vivo. Conditions: female Lewis rats, 1000 ug/rat s.c. on day 1 and day 15; chronic stage of disease; ANOVA vs vehicle p≦0.028; FIG. 1.
For data set [1] the following is noted: administered orally; cited from earlier work.
The conditions of data set [2]: Heithecker et al., 1991; cited from earlier work.
The test system of data set [3] is CD4+ lymphocytes of MS patients. As to conditions: concentrations at a similar level as in pregnancy; Correale et al. 1998; cited from earlier work.
For data set [4], the system named is experimental autoimmune encephalomyelitis (EAE). Conditions: levels equal to those found in pregnancy; Kim et al. 1999, Jansson et al. 1994; cited from earlier work.
The conditions of data set [5]: oral, 12 mg/day; Lindsay et al. 1979; cited from earlier work.

As to `CCCCCC(=O)Oc1ccc2c(c1)CC[C@@H]1[C@@H]2CC[C@@]2(C)[C@H]1C[C@@H](O)[C@@H]2OC(=O)CCCCC` [3,17β-di-n-hexanoyloxy-1,3,5(10)-estratriene-16α-ol], the “clinical score (EAE)” value with Lewis rat EAE model is “efficacious in lowering the clinical score”.

As for `C[C@]12CC[C@@H]3c4ccc(O)cc4CC[C@H]3[C@@H]1C[C@@H](O)[C@@H]2O` [estriol], the bioavailability result in data set [1] was “low”. Moreover, the half-life in data set [2] was 1.5 to 5.3 h. In addition, in data set [3], the “secretion of anti-inflammatory cytokine IL-10” value is “stimulated”. In addition, the “amelioration of disease (EAE)” value in data set [4] is “capable of ameliorating disease”. The osteoprotective effects result in data set [5] is “not able to show the osteoprotective effects”.
